Results published in patent US9328118B2, “Nitrogen-containing bicyclic aromatic heterocyclic compound” (ASTELLAS PHARMA INC., priority 2012, dated 2016).
Structures can show the parent of a compound that is named as a salt.

The compounds below were run against human cathepsin S (Homo sapiens (Human), UniProt P25774) (assay: In vitro human cathepsin S inhibitory activity (VVR-AMC fluorescence)). Conditions: human cathepsin S enzyme, substrate VVR-AMC 40 μM, pH 4.5, 37° C.; read-out: IC50 value of the human cathepsin S inhibitory activity (Data 1).
Chain of human cathepsin S (P25774 115-331): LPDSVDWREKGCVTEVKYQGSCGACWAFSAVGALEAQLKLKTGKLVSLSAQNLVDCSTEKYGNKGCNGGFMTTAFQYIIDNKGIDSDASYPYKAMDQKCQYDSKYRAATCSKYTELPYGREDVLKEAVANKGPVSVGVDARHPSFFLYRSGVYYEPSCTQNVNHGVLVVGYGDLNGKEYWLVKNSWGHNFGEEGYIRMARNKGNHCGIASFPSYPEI
Type: biochemical
Protocol: Test Example 1 Measurement of a In Vitro Human Cathepsin S Inhibitory Activity
5 μL of a human cathepsin S enzyme (R&D1183-CY-010) was added to a 96-well plate so as to be 20 ng/well. […] A reaction rate at the time of not adding an enzyme in which the test compound was not added and a reaction rate at the time of adding an enzyme in which the test compound was not added were set to 100% inhibition and 0% inhibition, respectively, then, an inhibition rate at each concentration was determined, and IC50 values were calculated by a linear regression method. In the Table, Ex represents Example compound No., and Data 1 represents an IC50 value (nM) of the human cathepsin S inhibitory activity.
In the case of `CCOc1ccc(-c2nc(C#N)nc3c2ccn3CC(=O)N2CCN(C)CC2)cc1C(F)(F)F` [Example 5, 4-[4-ethoxy-3-(trifluoromethyl)phenyl]-7-[2-(4-methylpiperazin-1-yl)-2-oxoethyl]-7H-pyrrolo[2,3-d]pyrimidine-2-carbonitrile], the IC50 is reported as 4.2 nM. With `CN(C)C(=O)N1CCC(CCOc2ccc(-c3nc(C#N)nc4c3ncn4C)cc2C(F)(F)F)CC1` [Example 7, 4-{2-[4-(2-cyano-9-methyl-9H-purin-6-yl)-2-(trifluoromethyl)phenoxy]ethyl}-N,N-dimethylpiperidine-1-carboxamide] the IC50 was 6.2 nM. For `CN1CCN(C(=O)Cn2ccc3c(-c4ccc(OCCC5CCOCC5)c(C(F)(F)F)c4)nc(C#N)nc32)CC1` [Example 8, 7-[2-(4-methylpiperazin-1-yl)-2-oxoethyl]-4-{4-[2-(tetrahydro-2H-pyran-4-yl)ethoxy]-3-(trifluoromethyl)phenyl}-7H-pyrrolo[2,3-d]pyrimidine-2-carbonitrile monohydrochloride], the IC50 was 1.6 nM. In the case of `Cc1nc2c(-c3ccc(OCCC4CCNCC4)c(C(F)(F)F)c3)nc(C#N)nc2n1C` [Example 10, 8,9-dimethyl-6-{4-[2-(piperidin-4-yl)ethoxy]-3-(trifluoromethyl)phenyl}-9H-purine-2-carbonitrile monohydrochloride], the IC50 is reported as 2.7 nM. In the case of `CCN1CCC(CCOc2ccc(-c3nc(C#N)nc4c3nc(C)n4C)cc2C(F)(F)F)CC1` [Example 11, 6-{4-[2-(1-ethylpiperidin-4-yl)ethoxy]-3-(trifluoromethyl)phenyl}-8,9-dimethyl-9H-purine-2-carbonitrile], the IC50 is reported as 1.9 nM. Compound `CCN1CCCC(CCOc2ncc(-c3nc(C#N)nc4c3ccn4C)cc2C(F)(F)F)C1` (stereo not drawn) [Example 12, 4-{6-[2-(1-ethylpiperidin-3-yl)ethoxy]-5-(trifluoromethyl)pyridin-3-yl}-7-methyl-7H-pyrrolo[2,3-d]pyrimidine-2-carbonitrile monohydrochloride] has an IC50 of 2.7 nM. In the case of `CCN1CCC(CCOc2ccc(-c3nc(C#N)nc4c3ccn4CCOC)cc2C(F)(F)F)CC1` [Example 13, 4-{4-[2-(1-ethylpiperidin-4-yl)ethoxy]-3-(trifluoromethyl)phenyl}-7-(2-methoxyethyl)-7H-pyrrolo[2,3-d]pyrimidine-2-carbonitrile monohydrochloride], the IC50 is reported as 2.7 nM. Work on `Cn1ccc2c(-c3ccc(OCCC4CCN(C5CC5)CC4)c(C(F)(F)F)c3)nc(C#N)nc21` [Example 14, 4-{4-[2-(1-cyclopropylpiperidin-4-yl)ethoxy]-3-(trifluoromethyl)phenyl}-7-methyl-7H-pyrrolo[2,3-d]pyrimidine-2-carbonitrile] yielded an IC50 of 2.3 nM. With `CN(C)C(=O)CN1CCC(CCOc2ccc(-c3nc(C#N)nc4c3ccn4CC3CCCO3)cc2C(F)(F)F)CC1` (stereo not drawn) [Example 16, 2-[4-(2-{4-[2-cyano-7-(tetrahydrofuran-2-ylmethyl)-7H-pyrrolo[2,3-d]pyrimidin-4-yl]-2-(trifluoromethyl)phenoxy}ethyl)piperidin-1-yl]-N,N-dimethylacetamide monohydrochloride] the IC50 was 4.7 nM. In the case of `Cn1ccc2c(-c3ccc(OCCC4C5CCC4CNC5)c(C(F)(F)F)c3)nc(C#N)nc21` (stereo not drawn) [Example 38], the IC50 is reported as 4.5 nM. `CN1CCC(CCOc2ncc(-c3nc(C#N)nc4c3ncn4C)cc2C(F)(F)F)CC1` [Example 136, 9-methyl-6-{6-[2-(1-methylpiperidin-4-yl)ethoxy]-5-(trifluoromethyl)pyridin-3-yl}-9H-purine-2-carbonitrile] was tested, and the IC50 was 1.5 nM. With `Cn1cnc2c(-c3cnc(OCCC4CCN(C(=O)[C@@H]5CCCN5)CC4)c(C(F)(F)F)c3)nc(C#N)nc21` [Example 138] the IC50 was 2.7 nM. In the case of `CC(C)N1CCC(CCOc2ncc(-c3nc(C#N)nc4c3ncn4C)cc2C(F)(F)F)CC1` [Example 139], the IC50 is reported as 2.1 nM. In the case of `Cn1cnc2c(-c3cnc(OCCC4CCN5CCCC5C4)c(C(F)(F)F)c3)nc(C#N)nc21` (stereo not drawn) [Example 142], the IC50 is reported as 1.5 nM. With `CN1CCC[C@@H]1C(=O)N1CC[C@H](OCCOc2ncc(-c3nc(C#N)nc4c3ccn4C)cc2C(F)(F)F)C1` [Example 143, 7-methyl-4-[6-(2-{[(3S)-1-(1-methyl-D-prolyl)pyrrolidin-3-yl]oxy}ethoxy)-5-(trifluoromethyl)pyridin-3-yl]-7H-pyrrolo[2,3-d]pyrimidine-2-carbonitrile monofumarate] the IC50 was 1.5 nM. In the case of `CC(C)CN1CCC(CCOc2ncc(-c3nc(C#N)nc4c3ncn4C)cc2C(F)(F)F)CC1` [Example 144], the IC50 is reported as 2.8 nM. Work on `Cn1cnc2c(-c3cnc(OCCC4CCN(C(CF)CF)CC4)c(C(F)(F)F)c3)nc(C#N)nc21` [Example 145] yielded an IC50 of 1 nM. Work on `Cn1cnc2c(-c3cnc(OCCC4CCN(C(C)(C)C)CC4)c(C(F)(F)F)c3)nc(C#N)nc21` [Example 146] yielded an IC50 of 3.2 nM. In the case of `Cn1ccc2c(-c3cnc(OCCOC4CCNCC4)c(C(F)(F)F)c3)nc(C#N)nc21` [Example 147], the IC50 is reported as 2.4 nM. Work on `Cn1ccc2c(-c3cnc(OCCO[C@H]4CCNC4)c(C(F)(F)F)c3)nc(C#N)nc21` [Example 148] yielded an IC50 of 2.8 nM. Compound `CN1CCC[C@H]1C(=O)N1CCC(OCCOc2ncc(-c3nc(C#N)nc4c3ccn4C)cc2C(F)(F)F)CC1` [Example 149] has an IC50 of 2.7 nM. `CN1CCC[C@H]1C(=O)N1CC[C@H](OCCOc2ncc(-c3nc(C#N)nc4c3ccn4C)cc2C(F)(F)F)C1` [Example 150] gave an IC50 of 1.7 nM. For `Cn1ccc2c(-c3cnc(OCC4CCNCC4)c(C(F)(F)F)c3)nc(C#N)nc21` [Example 153], the IC50 was 1.6 nM. `Cn1ccc2c(-c3cnc(OCC4CCN(C(=O)[C@@H]5CCCN5)CC4)c(C(F)(F)F)c3)nc(C#N)nc21` [Example 154] gave an IC50 of 2.4 nM. Work on `Cn1ccc2c(-c3cnc(OCC4CCN(CC(C)(C)O)CC4)c(C(F)(F)F)c3)nc(C#N)nc21` [Example 155] yielded an IC50 of 1.5 nM. `CC(C)N1CCC[C@H]1C(=O)N1CCC(COc2ncc(-c3nc(C#N)nc4c3ccn4C)cc2C(F)(F)F)CC1` [Example 156] showed an IC50 of 2.4 nM. In the case of `CN1CCC[C@H]1C(=O)N1CC[C@@H](OCCOc2ncc(-c3nc(C#N)nc4c3ccn4C)cc2C(F)(F)F)C1` [Example 157], the IC50 is reported as 2.1 nM. In the case of `Cn1ccc2c(-c3cnc(OCC4CCN(C(=O)C5CCNCC5)CC4)c(C(F)(F)F)c3)nc(C#N)nc21` [Example 159], the IC50 is reported as 2.7 nM. With `Cn1ccc2c(-c3cnc(OCC4CCN(C(=O)C5CCN(C6CCOCC6)CC5)CC4)c(C(F)(F)F)c3)nc(C#N)nc21` [Example 160] the IC50 was 2.4 nM.

What follows are compounds tested on MHC class II expression in B220 positive B cells of mouse spleen cells (assay: In vitro MHC class II expression inhibitory effect using mouse spleen cells (LPS-stimulated B cells, flow cytometry)). Conditions: B-cell, C57BL/6 spleen cells, LPS 2 μg/mL, 48 hours, B220 positive B cells, read-out: IC50 value of MHC class II expression inhibition (Data 2).
Type: cell-based, C57BL/6 mice
Protocol: Test Example 2 Evaluation of In Vitro MHC Class II Expression Inhibitory Effect Using Mouse Spleen Cells (Cell Evaluation System)
In antigen-presenting cells, the inhibition of cathepsin S inhibits the expression of MHC class II molecules. […] For an increased expression of MI-IC class II in B cells, the inhibitory effect of the compound represented by formula (I) was examined.
First, spleen cells collected from C57BL/6 mice were seeded in a 96-well plate so as to be a 1×10^5 cells/well, then, 5-fold dilution of 10 mM DMSO solution of the test compound was serially performed with RPMI 1640 medium (including 10% fetal bovine serum (FCS), 5×10^−5 M 2-mercaptoethanol, 50 IU/mL penicillin and 50 μg/mL streptomycin) nine times such that the final concentration becomes 0.026 nM to 10 μM, and the resultant products were added thereto (the final DMSO concentration was 0.1%). At the same time, LPS (Sigma L4005) was added to the wells such that the final concentration becomes 2 μg/mL, and culture was performed at 37° C. for 48 hours in 5% CO2. After culturing, the cells were stained at 4° C. for 20 minutes with PE-labeled streptavidin (BD BIOSCIENCE 554061) and biotin-labeled YAe antibody (EBIOSCIENCE 13-5741-85) together with FITC-labeled anti-mouse B220 antibody (BD BIOSCIENCE 553088), and an expression level (fluorescence intensity of YAe-biotin/streptavidin-PE) of MHC class II to which Ea peptide in B220 positive B cells was bonded was measured using a flow cytometry system (Guava EasyCyte Plus System, manufactured by Millipore Corporation). A value at the time of unstimulation of LPS in which the test compound was not added and a value at the time of stimulation of LPS in which the test compound was not added were set to 100% inhibition and 0% inhibition, respectively, then, an inhibition rate at each concentration was determined, and IC50 values were calculated by a linear regression method. In the Table, Ex represents Example compound No., and Data 2 represents an IC50 value (nM).
Work on `Cn1cnc2c(-c3ccc(OCCC4CCNCC4)c(C(F)(F)F)c3)nc(C#N)nc21` [Example 19] yielded an IC50 of 0.7 nM. Work on `CN(C)C(=O)CN1CCC(CCOc2ccc(-c3nc(C#N)nc4c3ccn4CCO)cc2C(F)(F)F)CC1` [Example 21] yielded an IC50 of 1 nM. Compound `N#Cc1nc(-c2ccc(OCCC3CCNCC3)c(C(F)(F)F)c2)c2ccn(CC3CCOC3)c2n1` (stereo not drawn) [Example 23] has an IC50 of 3 nM. `Cn1cnc2c(-c3ccc(OCCC4CCN(CCO)CC4)c(C(F)(F)F)c3)nc(C#N)nc21` [Example 24] was tested, and the IC50 was 0.8 nM. For `CCN1CCC(CCOc2ccc(-c3nc(C#N)nc4c3ncn4C)cc2C(F)(F)F)CC1` [Example 26], the IC50 was 0.61 nM. Compound `CCN1CCC(CCOc2ncc(-c3nc(C#N)nc4c3ccn4C)cc2C(F)(F)F)CC1` [Example 27] has an IC50 of 1.3 nM. `CN1CCC[C@H]1C(=O)N1CCC(CCOc2ccc(-c3nc(C#N)nc4c3ncn4C)cc2C(F)(F)F)CC1` [Example 29] showed an IC50 of 0.66 nM. For `CN1CCC[C@H]1C(=O)N1CCC(CCOc2ccc(-c3nc(C#N)nc4c3ccn4CC3CCOC3)cc2C(F)(F)F)CC1` (stereo partly drawn) [Example 30], the IC50 was 0.97 nM. `CN1CCC[C@H]1C(=O)N1CCC(CCOc2ncc(-c3nc(C#N)nc4c3ncn4C)cc2C(F)(F)F)CC1` [Example 40] gave an IC50 of 0.85 nM. `CN1CCC[C@H]1C(=O)N1CCC(CCOc2ncc(-c3nc(C#N)nc4c3ccn4C)cc2C(F)(F)F)CC1` [Example 41] showed an IC50 of 1.1 nM. Work on `CCN1CCC(CCOc2ncc(-c3nc(C#N)nc4c3ccn4CC3CCOC3)cc2C(F)(F)F)CC1` (stereo not drawn) [Example 52] yielded an IC50 of 1.8 nM. Compound `CCN1CCC(CCOc2ccc(-c3nc(C#N)nc4c3ccn4CC3CCOC3)cc2C(F)(F)F)CC1` (stereo not drawn) [Example 54] has an IC50 of 0.94 nM. `N#Cc1nc(-c2ccc(OCCC3CCNCC3)c(C(F)(F)F)c2)c2ccn(CC3CCCO3)c2n1` (stereo not drawn) [Example 58] gave an IC50 of 2 nM.
